Consider 21 molecules from paper PMC6853232, “Discovery and evaluation of novel synthetic 5-alkyl-4-oxo-4,5-dihydro-[1,2,4]triazolo[4,3-a]quinoxaline-1-carbox-amide derivatives as anti-inflammatory agents” (Journal of Enzyme Inhibition and Medicinal Chemistry, 2019).

The structures appear in SMILES notation.

Data set [1] is described as follows: MTT assay for cell viability. Format: cell-based, mouse. The conditions noted are these: mouse, RAW264.7 macrophage cells, 24 h, RAW264.7 cells. The method, then: The RAW 264.7 mouse macrophage cell line was obtained from the China Cell Line Bank (Beijing, China). Cells were cultured in complete medium (DMEM supplemented with 10% heat-inactivated FBS, 3 mM glutamine and antibiotics (100 U/mL penicillin and 100 U/mL streptomycin)) at 37 °C in a humidified incubator containing 5% CO2 and 95% air. […]
Cell viability studies induced by synthesised compounds were evaluated by 3-(4,5-dimethylthiazol-2-yl)-2,5-diphenyltetrazolium bromide (MTT) assay. RAW264.7 macrophages were seeded in 96-well plates at a density of 5 × 10^5 cells/mL in complete medium and incubated for 24 h (100 µL/well). Then the cells were treated with different concentrations of synthesised compounds for 24 h. 150 µL MTT (5 g/L in PBS) was added to each well and the cells were further incubated for 4 h. The supernatant was removed and the cells were lysed with 150 µL/well DMSO. The optical density was measured at 570 nm on a microplate reader (Thermo Scientific, MA, USA).
(Tetrazolium assays rely on reduction of a dye to a coloured formazan, in cell work by metabolically active cells.)

Data set [2] relates to LPS-induced NO production in RAW264.7 macrophages. As to the kind of experiment: Inhibition of LPS-induced NO production (Griess). The class given is cell-based, mouse. The conditions noted are these: 10 µM, SAR ranking. The method, then: The RAW 264.7 mouse macrophage cell line was obtained from the China Cell Line Bank (Beijing, China). Cells were cultured in complete medium (DMEM supplemented with 10% heat-inactivated FBS, 3 mM glutamine and antibiotics (100 U/mL penicillin and 100 U/mL streptomycin)) at 37 °C in a humidified incubator containing 5% CO2 and 95% air. Cells were treated with various concentrations of synthesised compounds for 30 min followed by stimulation with LPS ([…]).
Nitrite, a stable product of nitric oxide, was used to assess NO production. To study the effects of the isolated compounds on NO production, RAW264.7 cells were plated at 1 × 10^5 cells/well in a 96-well microplate and incubated overnight. The cells were pre-treated with various concentrations of the test compounds (3, 7.5, 10, 15, 30 or 100 µM) and further co-cultured with 1 µg/mL LPS for 24 h. Un-pre-treated and un-stimulated RAW 264.7 cells were conducted as the blank control group. At different time points, the supernatant (50 µL) was assayed with NO assay kit. The culture supernatant (50 µL) was mixed with an equal volume of the Griess reagent (1% sulphanilamide, 0.1% N-[1-naphthy] ethylenediamine dihydrochloride) and NO production were determined at 540 nm with an ELISAplate reader.
(In general: Nitrite, measured by Griess reagent, commonly stands in for NO production.)

Data set [3] deals with carrageenan-induced paw oedema. Kind of data set: Carrageenan-induced paw oedema model. Format: in vivo, rats. The conditions noted are these: 25 mg/kg p.o., n = 4. The source says:
The animal procedures were in strict accordance with the National Institutes of Healthy Guidelines for the Care and Use of Laboratory Animals (NIH Publication No. 85-23, revised 1996) and were approved by the Institutional Animal Care and Utilisation Committee of Yanbian University. Male albino rats weighing 280–300 gwere obtained from Animal Department of Yanbian University . They were kept in the animal house under standard condition of light and temperature with free access to food and water. The animals were randomly divided into five groups (control, D1, 6p, ibuprofen and celecoxib group) The groups with D1, 6p, ibuprofen and celecoxib were administered oral administration (p.o.) 25 mg/kg in a vehicle of 0.5% methylcellulose, respectively. The negative control group was treated with the same vehicle (0.5% methylcellulose). A solution of carrageenan (0.1 ml, 1.0% w/v in 0.9% of normal saline) was injected into the subplanter region of the left hind paw under light ether anaesthesia 1 h after oral administration (p.o.) of the test compound (at a dose level of 25 mg/kg body weight). The paw volume was measured at hourly interval for 5 h (0, 1, 3 and 5 h) and the percent inhibition of oedema was calculated using formula: %Inhibition=(Vt−Vo)control−(Vt−Vo)tested compound /(Vt−Vo)control×100 where, • Vo = volume of oedema at zero time interval. • Vt = volume of oedema at specific time interval.
A general note: Carrageenan injected into the paw causes an acute inflammation.

For `CCCCn1c(=O)c2nnc(C(N)=O)n2c2ccccc21` [6a, 5-butyl-4-oxo-4,5-dihydro-[1,2, 4]triazolo[4,3-a]quinoxaline-1-carboxamide], the melting point (as a rule, the temperature of the solid-liquid transition) was in the range of 262 to 264 °C. The viability (commonly the share of living cells, or the viability signal relative to a control) at 24 h, 30 µM in data set [1] is 92.3 ± 1.53%.
The like results for `CCCCCn1c(=O)c2nnc(C(N)=O)n2c2ccccc21` [6b, 5-pentyl-4-oxo-4,5-dihydro-[1,2, 4]triazolo[4,3-a]quinoxaline-1-carboxamide] were, in that order, 232 to 234 °C and 98 ± 1.1%.
In the case of `CCCCCCn1c(=O)c2nnc(C(N)=O)n2c2ccccc21` [6c, 5-hexyl-4-oxo-4,5-dihydro-[1,2, 4]triazolo[4,3-a]quinoxaline-1-carboxamide], the melting point lay within 239 to 241 °C. The molecule also came in with a viability at 24 h, 30 µM in data set [1] of 99.11 ± 0.69%.
The like results for `CCCCCCCn1c(=O)c2nnc(C(N)=O)n2c2ccccc21` [6d, 5-heptyl-4-oxo-4,5-dihydro-[1,2, 4]triazolo[4,3-a]quinoxaline-1-carboxamide] were, in that order, 231 to 233 °C and 81 ± 1.1%.
With `CCCCCCCCn1c(=O)c2nnc(C(N)=O)n2c2ccccc21` [6e, 5-octyl-4-oxo-4,5-dihydro-[1,2, 4]triazolo[4,3-a]quinoxaline-1-carboxamide], the melting point was 230 to 232 °C. Further, the viability at 24 h, 30 µM in data set [1] worked out at 99.5 ± 2.3%. In addition, the “anti-inflammatory activity (NO) within 5-alkyl derivatives 6a–6f” value in data set [2] is on record as “the most active”.
`CCCCCCCCCn1c(=O)c2nnc(C(N)=O)n2c2ccccc21` [6f, 5-nonyl-4-oxo-4,5-dihydro-[1,2, 4]triazolo[4,3-a]quinoxaline-1-carboxamide] showed a melting point of 236 to 238 °C. Further, in data set [1], the viability at 24 h, 10 µM was determined as 99.2 ± 1.65% and the viability at 24 h, 30 µM stood at 60 ± 3.4%.
`NC(=O)c1nnc2c(=O)n(Cc3ccccc3)c3ccccc3n12` [6g, 5-benzyl-4-oxo-4,5-dihydro-[1,2, 4]triazolo[4,3-a]quinoxaline-1-carboxamide] returned a melting point of 268 to 270 °C. In addition, in data set [1], the viability at 24 h, 30 µM is 85 ± 1%.
In turn, `NC(=O)c1nnc2c(=O)n(Cc3ccccc3F)c3ccccc3n12` [6h, 5-(2-fluorobenzyl)-4-oxo-4,5-dihydro-[1,2, 4]triazolo[4,3-a]quinoxaline-1-carboxamide] returned a melting point of 273 to 275 °C. Also, in data set [1], the viability at 24 h, 10 µM is 98.5 ± 1.76% and the viability at 24 h, 30 µM was 66.7 ± 1.33%.
On the same counts, the results for `NC(=O)c1nnc2c(=O)n(Cc3cccc(F)c3)c3ccccc3n12` [6i, 5–(3-fluorobenzyl)-4-oxo-4,5-dihydro-[1,2, 4]triazolo[4,3-a]quinoxaline-1-carboxamide] are 276 to 278 °C, 99.5 ± 4.17% and 59.3 ± 2.52%.
On the same counts, the results for `NC(=O)c1nnc2c(=O)n(Cc3ccc(F)cc3)c3ccccc3n12` [6j, 5-(4-fluorobenzyl)-4-oxo-4,5-dihydro-[1,2, 4]triazolo[4,3-a]quinoxaline-1-carboxamide] are 274 to 276 °C, 73.5 ± 2.27% and 48 ± 3%.
Regarding `NC(=O)c1nnc2c(=O)n(Cc3ccccc3Cl)c3ccccc3n12` [6k, 5-(2-chlorobenzyl)-4-oxo-4,5-dihydro-[1,2, 4]triazolo[4,3-a]quinoxaline-1-carboxamide], the melting point lay in the range of 278 to 280 °C. In data set [1], this molecule displayed a viability at 24 h, 10 µM of 74.6 ± 1.38% and a viability at 24 h, 30 µM of 46.3 ± 2.89%.
On the same counts, the results for `NC(=O)c1nnc2c(=O)n(Cc3cccc(Cl)c3)c3ccccc3n12` [6l, 5-(3-chlorobenzyl)-4-oxo-4,5-dihydro-[1,2, 4]triazolo[4,3-a]quinoxaline-1-carboxamide] are 269 to 271 °C, 87.9 ± 5.18% and 51.7 ± 2.12%.
The like results for `NC(=O)c1nnc2c(=O)n(Cc3ccc(Cl)cc3)c3ccccc3n12` [6m, 5-(4-chlorobenzyl)-4-oxo-4,5-dihydro-[1,2, 4]triazolo[4,3-a]quinoxaline-1-carboxamide] were, in that order, 282 to 284 °C, 82.2 ± 1.74% and 44.7 ± 3.06%.
In turn, `COc1cccc(Cn2c(=O)c3nnc(C(N)=O)n3c3ccccc32)c1` [6n, 5-(3-methoxybenzyl)-4-oxo-4,5-dihydro-[1,2, 4]triazolo[4,3-a]quinoxaline-1-carboxamide] gave a melting point of 266 to 268 °C. For the same molecule, in data set [1], the viability at 24 h, 30 µM stood at 93.33 ± 0.58%.
On the same counts, the results for `COc1ccc(Cn2c(=O)c3nnc(C(N)=O)n3c3ccccc32)cc1` [6o, 5-(4-methoxybenzyl)-4-oxo-4,5-dihydro-[1,2, 4]triazolo[4,3-a]quinoxaline-1-carboamide] are 264 to 266 °C and 80.1 ± 1%.
`NC(=O)c1nnc2c(=O)n(Cc3ccc(Cl)cc3Cl)c3ccccc3n12` [6q, 5-(2,4-dichlorobenzyl)-4-oxo-4,5-dihydro-[1,2, 4]triazolo[4,3-a]quinoxaline-1-carboxamide] displayed a melting point of 266 to 268 °C. In data set [1], this molecule had a viability at 24 h, 10 µM of 84.7 ± 6.49% and a viability at 24 h, 30 µM of 56.7 ± 1.34%.
`NC(=O)c1nnc2c(=O)n(Cc3cccc(C(F)(F)F)c3)c3ccccc3n12` [6r, 5-(3-(Trifluoromethyl)benzyl)-4-oxo-4,5-dihydro-[1,2, 4]triazolo[4,3-a]quinox-aline-1-carboxamide]: the melting point is 262 to 264 °C. This molecule also showed a viability at 24 h, 30 µM in data set [1] of 99.3 ± 0.6%.
On the same counts, the results for `NC(=O)c1nnc2c(=O)n(Cc3ccc([N+](=O)[O-])cc3)c3ccccc3n12` [6s, 5-(4-nitrobenzyl)-4-oxo-4,5-dihydro-[1,2, 4]triazolo[4,3-a]quinoxaline-1-carb-oxamide] are 273 to 275 °C and 80.1 ± 1.34%.
On the same counts, the results for `N#Cc1ccc(Cn2c(=O)c3nnc(C(N)=O)n3c3ccccc32)cc1` [6t, 5-(4-cyanobenzyl)-4-oxo-4,5-dihydro-[1,2, 4]triazolo[4,3-a]quinoxaline-1-carboxamide] are 298 to 300 °C and 90.3 ± 1.21%.
In the case of `Cc1ccc(-c2cc(C(F)(F)F)nn2-c2ccc(S(N)(=O)=O)cc2)cc1` [Celecoxib], the “% of oedema inhibition (% mean ± SD)” value in data set [3] (1 h) came to 48.09 ± 5.33%; in data set [3] (3 h, 25 mg/kg), 58.34 ± 4.08%; in data set [3] (3 h, listed as celecoxib, 25 mg/kg) it was 58.34%; in data set [3] (5 h), 41.92 ± 2.05%.
For the molecule `CC(C)Cc1ccc(C(C)C(=O)O)cc1` (stereo not shown) [Ibuprofen], the “% of oedema inhibition (% mean ± SD)” value is 31.92 ± 5.76% in data set [3] (1 h); 39.30 ± 4.86% in data set [3] (3 h, 25 mg/kg); 39.30% in data set [3] (3 h, listed as ibuprofen, 25 mg/kg); 25.29 ± 3.43% in data set [3] (5 h).
